Legend:
Experiment in all cases: relative viability (nuclei count vs DMSO), 5 days (fraction); higher = more cells survive
[1] = compound: CC1=C(C=CC(=C1)[N+](=O)[O-])NS(=O)(=O)C2=C(C=CC(=C2)Cl)Cl [FH535] + Cc1nc(Nc2ncc(C(=O)Nc3c(C)cccc3Cl)s2)cc(N2CCN(CCO)CC2)n1 [Dasatinib] (partner 0.075 µM)
Outline: (§1)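 Lung cancer cell lines in 1536-well plates got either a single drug or a fixed anchor-drug dose together with five library-drug doses (not always all listed) in √10 steps, by pin tool, on the day after seeding. Nuclei were counted after 5 days, and relative viability is the treated-to-vehicle ratio of nuclei counts. Values are medians of duplicate plates.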

[2] = compound: CC1=C(C=CC(=C1)[N+](=O)[O-])NS(=O)(=O)C2=C(C=CC(=C2)Cl)Cl [FH535] + Cc1cc(Nc2cc(N3CCN(C)CC3)nc(Sc3ccc(NC(=O)C4CC4)cc3)n2)n[nH]1 [Tozasertib] (partner 0.1 µM)
Outline: as §1

[3] = compound: CC1=C(C=CC(=C1)[N+](=O)[O-])NS(=O)(=O)C2=C(C=CC(=C2)Cl)Cl [FH535] + CC1(C)CCC(c2ccc(Cl)cc2)=C(CN2CCN(c3ccc(C(=O)NS(=O)(=O)c4ccc(N[C@H](CCN5CCOCC5)CSc5ccccc5)c(S(=O)(=O)C(F)(F)F)c4)cc3)CC2)C1 [Navitoclax] (partner 0.5 µM)
Outline: as §1

[4] = compound: CC1=C(C=CC(=C1)[N+](=O)[O-])NS(=O)(=O)C2=C(C=CC(=C2)Cl)Cl [FH535] + Nc1ncn([C@H]2C[C@H](O)[C@@H](CO)O2)c(=O)n1 [Decitabine] (partner 2 µM)
Outline: as §1

[5] = compound: CC1=C(C=CC(=C1)[N+](=O)[O-])NS(=O)(=O)C2=C(C=CC(=C2)Cl)Cl [FH535] + COc1cc2c(Oc3ccc(NC(=O)C4(C(=O)Nc5ccc(F)cc5)CC4)cc3F)ccnc2cc1OCCCN1CCOCC1 [Foretinib] (partner 0.25 µM)
Outline: as §1

Cell Line: NCI-H1993
- relative viability ([1]; first compound 0.04 µM): 0.526
- relative viability ([1]; first compound 0.1265 µM): 0.597
- relative viability ([1]; first compound 0.4 µM): 0.474
- relative viability ([1]; first compound 1.265 µM): 0.427
- relative viability ([2]; first compound 0.04 µM): 0.53
- relative viability ([2]; first compound 0.1265 µM): 0.596
- relative viability ([2]; first compound 0.4 µM): 0.551
- relative viability ([2]; first compound 1.265 µM): 0.472
- relative viability ([3]; first compound 0.04 µM): 0.946
- relative viability ([3]; first compound 0.1265 µM): 1.01
- relative viability ([3]; first compound 0.4 µM): 0.838
- relative viability ([3]; first compound 1.265 µM): 0.695
- relative viability ([4]; first compound 0.04 µM): 0.563
- relative viability ([4]; first compound 0.1265 µM): 1.13
- relative viability ([4]; first compound 0.4 µM): 0.357
- relative viability ([4]; first compound 1.265 µM): 0.613
- relative viability ([5]; first compound 0.04 µM): 0.76
- relative viability ([5]; first compound 0.1265 µM): 0.753
- relative viability ([5]; first compound 0.4 µM): 0.741
- relative viability ([5]; first compound 1.265 µM): 0.575

Cell Line: NCI-H2009
- relative viability ([1]; first compound 0.04 µM): 0.256
- relative viability ([1]; first compound 0.1265 µM): 0.307
- relative viability ([1]; first compound 0.4 µM): 0.269
- relative viability ([1]; first compound 1.265 µM): 0.277
- relative viability ([2]; first compound 0.04 µM): 0.777
- relative viability ([2]; first compound 0.1265 µM): 0.806
- relative viability ([2]; first compound 0.4 µM): 0.747
- relative viability ([2]; first compound 1.265 µM): 0.631
- relative viability ([3]; first compound 0.04 µM): 1.11
- relative viability ([3]; first compound 0.1265 µM): 1.13
- relative viability ([3]; first compound 0.4 µM): 1.09
- relative viability ([3]; first compound 1.265 µM): 0.847
- relative viability ([4]; first compound 0.04 µM): 0.339
- relative viability ([4]; first compound 0.1265 µM): 0.363
- relative viability ([4]; first compound 0.4 µM): 0.434
- relative viability ([4]; first compound 1.265 µM): 0.391
- relative viability ([5]; first compound 0.04 µM): 1.27
- relative viability ([5]; first compound 0.1265 µM): 1.22
- relative viability ([5]; first compound 0.4 µM): 1.18
- relative viability ([5]; first compound 1.265 µM): 0.929

Cell Line: NCI-H2023
- relative viability ([1]; first compound 0.04 µM): 0.601
- relative viability ([1]; first compound 0.1265 µM): 0.616
- relative viability ([1]; first compound 0.4 µM): 0.49
- relative viability ([1]; first compound 1.265 µM): 0.459
- relative viability ([2]; first compound 0.04 µM): 0.296
- relative viability ([2]; first compound 0.1265 µM): 0.371
- relative viability ([2]; first compound 0.4 µM): 0.354
- relative viability ([2]; first compound 1.265 µM): 0.301
- relative viability ([3]; first compound 0.04 µM): 1
- relative viability ([3]; first compound 0.1265 µM): 1
- relative viability ([3]; first compound 0.4 µM): 1.04
- relative viability ([3]; first compound 1.265 µM): 0.804
- relative viability ([4]; first compound 0.04 µM): 0.218
- relative viability ([4]; first compound 0.1265 µM): 0.223
- relative viability ([4]; first compound 0.4 µM): 0.236
- relative viability ([4]; first compound 1.265 µM): 0.213
- relative viability ([5]; first compound 0.04 µM): 0.876
- relative viability ([5]; first compound 0.1265 µM): 0.995
- relative viability ([5]; first compound 0.4 µM): 0.699
- relative viability ([5]; first compound 1.265 µM): 0.743

Cell Line: NCI-H2085
- relative viability ([1]; first compound 0.04 µM): 0.271
- relative viability ([1]; first compound 0.1265 µM): 0.174
- relative viability ([1]; first compound 0.4 µM): 0.284
- relative viability ([1]; first compound 1.265 µM): 0.217
- relative viability ([2]; first compound 0.04 µM): 0.845
- relative viability ([2]; first compound 0.1265 µM): 0.784
- relative viability ([2]; first compound 0.4 µM): 0.726
- relative viability ([2]; first compound 1.265 µM): 0.522
- relative viability ([3]; first compound 0.04 µM): 1.1
- relative viability ([3]; first compound 0.1265 µM): 1.05
- relative viability ([3]; first compound 0.4 µM): 1.05
- relative viability ([3]; first compound 1.265 µM): 0.846
- relative viability ([4]; first compound 0.04 µM): 0.542
- relative viability ([4]; first compound 0.1265 µM): 0.512
- relative viability ([4]; first compound 0.4 µM): 0.572
- relative viability ([4]; first compound 1.265 µM): 0.431
- relative viability ([5]; first compound 0.04 µM): 1.01
- relative viability ([5]; first compound 0.1265 µM): 0.869
- relative viability ([5]; first compound 0.4 µM): 0.89
- relative viability ([5]; first compound 1.265 µM): 0.59

Cell Line: NCI-H2087
- relative viability ([1]; first compound 0.04 µM): 0.685
- relative viability ([1]; first compound 0.1265 µM): 0.711
- relative viability ([1]; first compound 0.4 µM): 0.714
- relative viability ([1]; first compound 1.265 µM): 0.675
- relative viability ([2]; first compound 0.04 µM): 0.252
- relative viability ([2]; first compound 0.1265 µM): 0.223
- relative viability ([2]; first compound 0.4 µM): 0.276
- relative viability ([2]; first compound 1.265 µM): 0.212
- relative viability ([3]; first compound 0.04 µM): 0.811
- relative viability ([3]; first compound 0.1265 µM): 1.11
- relative viability ([3]; first compound 0.4 µM): 0.947
- relative viability ([3]; first compound 1.265 µM): 0.518
- relative viability ([4]; first compound 0.04 µM): 0.26
- relative viability ([4]; first compound 0.1265 µM): 0.225
- relative viability ([4]; first compound 0.4 µM): 0.194
- relative viability ([4]; first compound 1.265 µM): 0.18
- relative viability ([5]; first compound 0.04 µM): 1.05
- relative viability ([5]; first compound 0.1265 µM): 1.07
- relative viability ([5]; first compound 0.4 µM): 0.916
- relative viability ([5]; first compound 1.265 µM): 0.766

Cell Line: NCI-H2126
- relative viability ([1]; first compound 0.04 µM): 0.598
- relative viability ([1]; first compound 0.1265 µM): 0.573
- relative viability ([1]; first compound 0.4 µM): 0.49
- relative viability ([1]; first compound 1.265 µM): 0.292
- relative viability ([2]; first compound 0.04 µM): 0.809
- relative viability ([2]; first compound 0.1265 µM): 0.823
- relative viability ([2]; first compound 0.4 µM): 0.832
- relative viability ([2]; first compound 1.265 µM): 0.583
- relative viability ([3]; first compound 0.04 µM): 0.779
- relative viability ([3]; first compound 0.1265 µM): 0.875
- relative viability ([3]; first compound 0.4 µM): 0.778
- relative viability ([3]; first compound 1.265 µM): 0.628
- relative viability ([4]; first compound 0.04 µM): 0.59
- relative viability ([4]; first compound 0.1265 µM): 0.582
- relative viability ([4]; first compound 0.4 µM): 0.574
- relative viability ([4]; first compound 1.265 µM): 0.415
- relative viability ([5]; first compound 0.04 µM): 0.955
- relative viability ([5]; first compound 0.1265 µM): 1.31
- relative viability ([5]; first compound 0.4 µM): 1.06
- relative viability ([5]; first compound 1.265 µM): 0.601

Cell Line: NCI-H2170
- relative viability ([1]; first compound 0.04 µM): 0.664
- relative viability ([1]; first compound 0.1265 µM): 0.611
- relative viability ([1]; first compound 0.4 µM): 0.429
- relative viability ([1]; first compound 1.265 µM): 0.625
- relative viability ([2]; first compound 0.04 µM): 0.674
- relative viability ([2]; first compound 0.1265 µM): 0.772
- relative viability ([2]; first compound 0.4 µM): 0.69
- relative viability ([2]; first compound 1.265 µM): 0.697
- relative viability ([3]; first compound 0.04 µM): 0.612
- relative viability ([3]; first compound 0.1265 µM): 0.548
- relative viability ([3]; first compound 0.4 µM): 0.597
- relative viability ([3]; first compound 1.265 µM): 0.54
- relative viability ([4]; first compound 0.04 µM): 0.433
- relative viability ([4]; first compound 0.1265 µM): 0.473
- relative viability ([4]; first compound 0.4 µM): 0.443
- relative viability ([4]; first compound 1.265 µM): 0.447
- relative viability ([5]; first compound 0.04 µM): 1.06
- relative viability ([5]; first compound 0.1265 µM): 0.96
- relative viability ([5]; first compound 0.4 µM): 0.988
- relative viability ([5]; first compound 1.265 µM): 0.891

Cell Line: NCI-H2347
- relative viability ([1]; first compound 0.04 µM): 0.298
- relative viability ([1]; first compound 0.1265 µM): 0.292
- relative viability ([1]; first compound 0.4 µM): 0.294
- relative viability ([1]; first compound 1.265 µM): 0.261
- relative viability ([2]; first compound 0.04 µM): 0.633
- relative viability ([2]; first compound 0.1265 µM): 0.461
- relative viability ([2]; first compound 0.4 µM): 0.522
- relative viability ([2]; first compound 1.265 µM): 0.631
- relative viability ([3]; first compound 0.04 µM): 0.684
- relative viability ([3]; first compound 0.1265 µM): 0.792
- relative viability ([3]; first compound 0.4 µM): 0.871
- relative viability ([3]; first compound 1.265 µM): 0.705
- relative viability ([4]; first compound 0.04 µM): 0.594
- relative viability ([4]; first compound 0.1265 µM): 0.678
- relative viability ([4]; first compound 0.4 µM): 0.614
- relative viability ([4]; first compound 1.265 µM): 0.572
- relative viability ([5]; first compound 0.04 µM): 0.792
- relative viability ([5]; first compound 0.1265 µM): 0.865
- relative viability ([5]; first compound 0.4 µM): 1.03
- relative viability ([5]; first compound 1.265 µM): 0.701
